Assay: xn = mol fraction of the nth substance listed
Details: Liquid; for viscosity: Vibrating wire viscometry; for mass density: vibrating-wire apparatus

CC(C)CCCC(C)CCCC(C)CCCCC(C)CCCC(C)CCCC(C)C (configuration not stated) [2,6,10,15,19,23-hexamethyltetracosane] + O=C=O
Details	mass density [kg/m3]	viscosity [mPa·s]
303.15 K, 10060 kPa, x2 = 0.4233	814.8	9.12
303.15 K, 10070 kPa, x2 = 0.4233	815.3	9.17
303.15 K, 30380 kPa, x2 = 0.4233	828	12.7
303.15 K, 50510 kPa, x2 = 0.4233	839.2	17.3
303.15 K, 70400 kPa, x2 = 0.4233	849.3	23
303.15 K, 90250 kPa, x2 = 0.4233	856.5	30.5
303.15 K, 110380 kPa, x2 = 0.4233	862.1	40.1
303.15 K, 130280 kPa, x2 = 0.4233	867.8	52.3
303.15 K, 150080 kPa, x2 = 0.4233	869.4	67.8
303.15 K, 170210 kPa, x2 = 0.4233	882.8	85.9
303.17 K, 30190 kPa, x2 = 0.7882	854.3	2.36
303.17 K, 30740 kPa, x2 = 0.7882	847.4	2.24
303.17 K, 50100 kPa, x2 = 0.7882	863.4	2.79
303.17 K, 70730 kPa, x2 = 0.7882	877.8	3.43
303.17 K, 90490 kPa, x2 = 0.7882	890	4.15
303.17 K, 110640 kPa, x2 = 0.7882	901.1	4.95
303.17 K, 130570 kPa, x2 = 0.7882	911	5.91
303.17 K, 151340 kPa, x2 = 0.7882	922.8	6.94
303.17 K, 170570 kPa, x2 = 0.7882	934.8	8.13
303.18 K, 10600 kPa, x2 = 0.6039	823.9	4.92
303.18 K, 30810 kPa, x2 = 0.6039	838.1	6.58
303.18 K, 50820 kPa, x2 = 0.6039	850.4	8.58
303.18 K, 70800 kPa, x2 = 0.6039	861	11
303.18 K, 91100 kPa, x2 = 0.6039	871.1	14
303.18 K, 100670 kPa, x2 = 0.6039	874.8	15.6
303.18 K, 111110 kPa, x2 = 0.6039	879.9	17.5
303.18 K, 130850 kPa, x2 = 0.6039	888.1	21.7
303.18 K, 150500 kPa, x2 = 0.6039	897.9	26.5
303.18 K, 170440 kPa, x2 = 0.6039	910.5	32
348.11 K, 10450 kPa, x2 = 0.6039	787.7	1.92
348.11 K, 10480 kPa, x2 = 0.6039	788.1	1.92
348.11 K, 30310 kPa, x2 = 0.6039	806	2.49
348.11 K, 50270 kPa, x2 = 0.6039	820.7	3.13
348.11 K, 70180 kPa, x2 = 0.6039	833.3	3.85
348.11 K, 90320 kPa, x2 = 0.6039	844.4	4.68
348.11 K, 110880 kPa, x2 = 0.6039	854.6	5.64
348.11 K, 130860 kPa, x2 = 0.6039	863.7	6.7
348.11 K, 150870 kPa, x2 = 0.6039	872.1	7.9
348.11 K, 170910 kPa, x2 = 0.6039	879.8	9.28
348.25 K, 10070 kPa, x2 = 0.4233	783.6	2.99
348.25 K, 10100 kPa, x2 = 0.4233	783.4	2.98
348.25 K, 30390 kPa, x2 = 0.7882	806	1.08
348.25 K, 30440 kPa, x2 = 0.4233	799.2	3.95
348.25 K, 30610 kPa, x2 = 0.7882	806.9	1.07
348.25 K, 50540 kPa, x2 = 0.7882	827	1.34
348.25 K, 50590 kPa, x2 = 0.4233	812.2	5.1
348.25 K, 70530 kPa, x2 = 0.4233	823.5	6.42
348.25 K, 70650 kPa, x2 = 0.7882	844	1.61
348.25 K, 90610 kPa, x2 = 0.4233	833.7	7.98
348.25 K, 90680 kPa, x2 = 0.7882	858.4	1.91
348.25 K, 110350 kPa, x2 = 0.7882	870.8	2.22
348.25 K, 110610 kPa, x2 = 0.4233	842.8	9.83
348.25 K, 130400 kPa, x2 = 0.4233	851.3	11.9
348.25 K, 130530 kPa, x2 = 0.7882	882.3	2.57
348.25 K, 150600 kPa, x2 = 0.7882	892.7	2.94
348.25 K, 150670 kPa, x2 = 0.4233	859.3	14.5
348.25 K, 169670 kPa, x2 = 0.4233	866.3	17.3
348.25 K, 170310 kPa, x2 = 0.7882	902	3.34
398.13 K, 10940 kPa, x2 = 0.6039	749.2	1.01
398.13 K, 11100 kPa, x2 = 0.6039	748.9	1
398.13 K, 30870 kPa, x2 = 0.6039	771.8	1.3
398.13 K, 50550 kPa, x2 = 0.6039	789.2	1.61
398.13 K, 70810 kPa, x2 = 0.6039	804.2	1.95
398.13 K, 91230 kPa, x2 = 0.6039	817.2	2.31
398.13 K, 110700 kPa, x2 = 0.6039	828.2	2.69
398.13 K, 131240 kPa, x2 = 0.6039	838.7	3.12
398.13 K, 150740 kPa, x2 = 0.6039	847.7	3.57
398.13 K, 170660 kPa, x2 = 0.6039	856.2	4.08
398.31 K, 10790 kPa, x2 = 0.4233	749	1.38
398.31 K, 10830 kPa, x2 = 0.4233	755.3	1.39
398.31 K, 30180 kPa, x2 = 0.4233	768.1	1.79
398.31 K, 50350 kPa, x2 = 0.4233	784	2.24
398.31 K, 70500 kPa, x2 = 0.4233	797.4	2.74
398.31 K, 90450 kPa, x2 = 0.4233	808.9	3.3
398.31 K, 110290 kPa, x2 = 0.4233	819.1	3.92
398.31 K, 130350 kPa, x2 = 0.4233	828.4	4.62
398.31 K, 150520 kPa, x2 = 0.4233	837.2	5.4
398.31 K, 170000 kPa, x2 = 0.4233	845	6.24
398.33 K, 30150 kPa, x2 = 0.7882	760.4	0.62
398.33 K, 30500 kPa, x2 = 0.7882	759.9	0.62
398.33 K, 50500 kPa, x2 = 0.7882	786.7	0.78
398.33 K, 70580 kPa, x2 = 0.7882	807.3	0.94
398.33 K, 90510 kPa, x2 = 0.7882	824.2	1.1
398.33 K, 110760 kPa, x2 = 0.7882	839	1.28
398.33 K, 130550 kPa, x2 = 0.7882	851.6	1.46
398.33 K, 150620 kPa, x2 = 0.7882	863.2	1.65
398.33 K, 170310 kPa, x2 = 0.7882	873.6	1.84
448.13 K, 10630 kPa, x2 = 0.6039	713.1	0.69
448.13 K, 11010 kPa, x2 = 0.6039	713.3	0.68
448.13 K, 30730 kPa, x2 = 0.6039	739.7	0.89
448.13 K, 50590 kPa, x2 = 0.6039	759.8	1.09
448.13 K, 70380 kPa, x2 = 0.6039	776.6	1.22
448.13 K, 91380 kPa, x2 = 0.6039	791.8	1.43
448.13 K, 111050 kPa, x2 = 0.6039	804.5	1.63
448.13 K, 130810 kPa, x2 = 0.6039	815.7	1.84
448.13 K, 150960 kPa, x2 = 0.6039	826	2.08
448.13 K, 171000 kPa, x2 = 0.6039	835.3	2.35
448.35 K, 11450 kPa, x2 = 0.4233	715.2	0.8
448.35 K, 11570 kPa, x2 = 0.4233	720.6	0.81
448.35 K, 30330 kPa, x2 = 0.4233	737.6	1.04
448.35 K, 50410 kPa, x2 = 0.4233	756.5	1.3
448.35 K, 70450 kPa, x2 = 0.4233	771.8	1.57
448.35 K, 90670 kPa, x2 = 0.4233	785.2	1.86
448.35 K, 110310 kPa, x2 = 0.4233	796.6	2.17
448.35 K, 130440 kPa, x2 = 0.4233	807	2.52
448.35 K, 150510 kPa, x2 = 0.4233	816.5	2.88
448.35 K, 169900 kPa, x2 = 0.4233	824.8	3.28
448.41 K, 30160 kPa, x2 = 0.7882	714.5	0.41
448.41 K, 30820 kPa, x2 = 0.7882	714.9	0.41
448.41 K, 50450 kPa, x2 = 0.7882	748	0.52
448.41 K, 70350 kPa, x2 = 0.7882	772.5	0.63
448.41 K, 90420 kPa, x2 = 0.7882	792.3	0.74
448.41 K, 110590 kPa, x2 = 0.7882	809.1	0.85
448.41 K, 130360 kPa, x2 = 0.7882	823.3	0.97
448.41 K, 150480 kPa, x2 = 0.7882	836.2	1.1
448.41 K, 169720 kPa, x2 = 0.7882	847.5	1.22

— the NIST ThermoML archive (doi:10.1021/je800894y)
